Laboratory results published in patent US20130149721A1, “Methods for Inhibiting Amyloid Precursor Protein and Beta-Amyloid Production and Accumulation” (WISCONSIN ALUMNI RESEARCH FOUNDATION, priority 2008, published 2013).
Marks after values point to notes of the source that are not given here.

Experiments:
[1] = tested on: APP levels in WT and Fmr-1 KO SN; assay: Western blot of steady-state APP levels in synaptoneurosomes; assay type: cell-based, mouse
Procedure: FIG. 3 is a result from western blot analysis illustrating differential regulation of APP levels in WT and KO SN. Western blots of WT (top panel) and KO (bottom panel) SN treated in the presence or absence of DHPG (at 5, 10 and 20 min of incubation) were probed with anti-APP and anti-β-actin (control) antibodies.
Western blot analysis. Aliquots of SNs were collected at 5, 10, and 20 min after DHPG treatment, quenched with an equal volume of 2×SDS sample buffer (8% SDS, 24% glycerol, 100 mM Tris (pH 6.8), 4% β-mercaptoethanol, 0.02% bromophenol blue, 2% Triton X-100, 2% deoxycholate, 2% NP-40 alternative, and 2% sarkosyl) and boiled for 5 min prior to analysis by 12% SDS-PAGE. The separated proteins were transferred to a 0.45 μm nitrocellulose membrane in Towbin buffer containing 20% methanol with a Criterion Blotter (Bio-Rad, http://www.bio-rad.com; 100 V, 4° C., 75 min). The membranes were blocked in 5% nonfat dry milk and hybridized with anti-rabbit APP antibody (dilution, 1 μg/ml) and anti-mouse β-actin antibody (dilution, 1:20,000) followed by hybridization with anti-rabbit or anti-mouse HRP-conjugated secondary antibodies (dilution, 1:2000). […]
In order to assess changes in steady-state APP levels, rather than new protein synthesis, APP was measured in WT and Fmr-1 KO SN in response to DHPG by western blot analysis (FIG. 3). […]

[2] = tested on: PTZ-induced seizures in WT, Fmr-1 KO, Tg2576 and FRAXAD mice; assay: PTZ seizure induction after MPEP pre-treatment; assay type: in vivo, mouse; conditions: 30 mg/kg MPEP I.P. 30 min prior to PTZ
Procedure: To assess the impact of mGluR5 inhibition on seizure phenotypes, Frm-1 KO, Tg2576, and FRAXAD mice were treated with mGluR5 antagonist, MPEP. Tg2576, FRAXAD and littermate controls were treated with 30 mg/kg MPEP (via I.P. injections) 30 min prior to seizure induction with PTZ. The experimental results presented in Table 2 support MPEP's effect as an anti-convulsant in both WT and Fmr-1 KO mice. WT male mice reach a grade 3 seizure, fully developed minimal seizure with clonus of the head muscles and forelimbs, at a rate of 50% in response to 50 mg/kg PTZ, but only 20% achieve a grade 3 seizure with MPEP treatment 30 min prior to PTZ (statistically significant, χ^2 test, p<0.0005). Likewise, there was a reduction from 11% to 0%, 46% to 25%, and 40% to 33% in WT females, Fmr-1 KO males and Fmr-1 KO females, respectively when tested using the seizure induction assay.

mGluR5 = mGluR5 (Homo sapiens, UniProt P41594); conditions: shared allosteric modulatory site; cited from earlier work
[3] = tested on: audiogenic seizures in mice; assay: Audiogenic seizure (AGS) testing; assay type: in vivo, mouse; conditions: MPEP 30 mg/kg I.P. 30 min prior to AGS testing
Procedure: Audiogenic Seizure Testing, Data Analyses and mGluR5 Blockade: All mouse strains were tested at postnatal day 21, the peak of AGS sensitivity. The experimental apparatus consisted of a clear, Plexiglas box (13″L×8″W×7″H) with the sound source located inside the box (LOUD KEY™ jogger's alarm). Mice were weighed and then placed individually into the center of the chamber and exposed to a siren that generated noise at 118 dB for 5 min. Loud, acoustic stimulation causes wild running (WR) behavior within 20-30 sec followed by erratic leaping, clonic convulsions and tonic hind limb extension by 40-50 sec followed by respiratory arrest and death (Chen, et al., 2001, Neuroscience 103, 1043-1050). The animals were scored for the latency time of wild running (WR), AGS and respiratory arrest (death). […] MPEP was a kind gift from FRAXA Research Foundation (Newburyport, Mass.) and was dissolved at 1 mg/mL in DPBS before I.P. injection at 30 mg/kg body weight 30 min prior to AGS testing.
Tg2576 mice over-expressed hAPPSwe and hAβ. FRAXAD were a cross between fmr-1^−/− (Fragile X mouse model) and Tg2576 (AD mouse model) and generated 23% more brain hAβ1-40 than Tg2576 (Westmark et al., 2008, Int J Clin Exp Pathol 1: 157-168). […] It was determined whether hAPPSwe/hAβ over-expression in an fmr-1 null background (FRAXAD mice) increased AGS. C57BL/6 fmr-1^−/− mice were sensitive to AGS from 15-47 days with a peak at 21 days (Yan et al., 2005, Neuropharmacology 49: 1053-1066). AGS in WT, fmr-1^−/−, Tg2576 and FRAXAD mice was examined at 21 days of age. Mice were transferred to a Plexiglas box (13″L×8″W×7″H) shortly after weaning and exposed to high pitch siren (118 dB) from a personal body alarm (LOUD KEY™).
A common denominator between Fragile X Syndrome (FXS), Downs Syndrome (DS), and Alzheimer's Disease (AD) is the over-expression of amyloid precursor protein (APP) and/or beta-amyloid (Aβ). […] Additionally, methods that decreased APP/Aβ levels were expected to reduce AGS. Accordingly, AGS rates were examined in AD, FXS and DS mouse models. AGS rates for FRAXAD, Tg2576, and fmr-1^−/−, Ts65Dn were described above in Example 6. Here, the ability of 2-methyl-6-(phenylethynyl)pyridine hydrochloride (MPEP) to attenuate AGS was assessed. Tg2576 and FRAXAD mice were treated with MPEP for 30 min prior to AGS stimulation to assess the effect of mGluR5 blockade on seizure propensity in AD mouse models.

Chain of mGluR5 (P41594 21-1212): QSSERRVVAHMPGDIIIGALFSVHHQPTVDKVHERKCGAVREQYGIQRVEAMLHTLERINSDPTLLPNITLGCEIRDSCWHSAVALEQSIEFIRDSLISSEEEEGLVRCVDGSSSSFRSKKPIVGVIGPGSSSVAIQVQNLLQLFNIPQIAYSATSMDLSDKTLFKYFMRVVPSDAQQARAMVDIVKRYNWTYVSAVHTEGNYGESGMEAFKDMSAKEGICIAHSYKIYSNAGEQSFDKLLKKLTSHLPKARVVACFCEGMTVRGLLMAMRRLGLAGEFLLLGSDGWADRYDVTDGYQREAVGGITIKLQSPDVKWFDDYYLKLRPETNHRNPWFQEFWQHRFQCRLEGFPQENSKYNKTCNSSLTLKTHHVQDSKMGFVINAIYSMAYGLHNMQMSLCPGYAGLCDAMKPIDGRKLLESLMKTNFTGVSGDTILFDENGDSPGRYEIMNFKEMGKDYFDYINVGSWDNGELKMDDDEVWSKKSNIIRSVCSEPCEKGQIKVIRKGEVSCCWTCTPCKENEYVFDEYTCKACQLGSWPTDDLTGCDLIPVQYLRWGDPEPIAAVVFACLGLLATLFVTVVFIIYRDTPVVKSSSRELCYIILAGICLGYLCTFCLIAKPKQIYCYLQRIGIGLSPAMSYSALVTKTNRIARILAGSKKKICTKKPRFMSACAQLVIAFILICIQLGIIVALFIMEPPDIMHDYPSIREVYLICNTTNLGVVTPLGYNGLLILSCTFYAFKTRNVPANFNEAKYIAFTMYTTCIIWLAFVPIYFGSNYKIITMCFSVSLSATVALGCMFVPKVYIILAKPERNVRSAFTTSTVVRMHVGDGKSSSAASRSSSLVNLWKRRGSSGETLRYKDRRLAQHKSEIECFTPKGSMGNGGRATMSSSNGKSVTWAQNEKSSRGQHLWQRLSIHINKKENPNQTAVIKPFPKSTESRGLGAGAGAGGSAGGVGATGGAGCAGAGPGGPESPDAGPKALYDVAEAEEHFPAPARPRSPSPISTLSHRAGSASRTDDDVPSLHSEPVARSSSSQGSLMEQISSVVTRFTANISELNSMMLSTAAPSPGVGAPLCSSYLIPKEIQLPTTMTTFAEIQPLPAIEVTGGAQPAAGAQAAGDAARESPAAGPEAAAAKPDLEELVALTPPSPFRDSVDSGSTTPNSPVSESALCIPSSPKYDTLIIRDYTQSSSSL

With `N[C@@H](C(=O)O)c1cc(O)cc(O)c1` (racemic) [DHPG, (R,S)-3,5-dihydroxyphenylglycine] the “increase in total APP levels” value ([1]; Fmr-1 KO SN, DHPG) was “completely absent” and the “increase in total APP levels” value ([1]; WT SN, within 5 min of DHPG, n=3) was 1.6 fold.
With `Cc1cccc(C#Cc2ccccc2)n1` [MPEP, 2-methyl-6-(phenylethynyl)pyridine] the “MPEP + PTZ % death” value ([2]; FMR-1 KO female) was 0%, the “MPEP + PTZ % grade 3” value ([2]; FMR-1 KO female) was 33% and the “MPEP + PTZ % death” value ([2]; FMR-1 KO male) was 0%. The “MPEP + PTZ % grade 3” value ([2]; FMR-1 KO male, 30 mg/kg) was 25%, the “MPEP + PTZ % death” value ([2]; FRAXAD female) was 40* % and the “MPEP + PTZ % grade 3” value ([2]; FRAXAD female) was 100%. For the same compound, the “MPEP + PTZ % death” value ([2]; FRAXAD male) was 60* %, the “MPEP + PTZ % grade 3” value ([2]; FRAXAD male) was 80% and the “MPEP + PTZ % death” value ([2]; Tg2576 female) was 50* %. For the same compound, the “MPEP + PTZ % grade 3” value ([2]; Tg2576 female) was 75%, the “MPEP + PTZ % death” value ([2]; Tg2576 male) was 75% and the “MPEP + PTZ % grade 3” value ([2]; Tg2576 male) was 100%. For the same compound, the “MPEP + PTZ % death” value ([2]; WT female) was 0%, the “MPEP + PTZ % grade 3” value ([2]; WT female, 30 mg/kg) was 0% and the “MPEP + PTZ % death” value ([2]; WT male) was 0%. For the same compound, the “MPEP + PTZ % grade 3” value ([2]; WT male, 30 mg/kg) was 20%, the mGluR5 antagonist character (mGluR5) was “potent and highly selective noncompetitive antagonists” and the “% Death” value ([3]; FRAXAD mice) was 7%. The “% WR” value ([3]; FRAXAD mice) was 60%, the “% Death” value ([3]; Fmr-1 KO mice) was 0% and the “% WR” value ([3]; Fmr-1 KO mice) was 14%. For the same compound, the “% Death” value ([3]; Tg2576 mice) was 0%, the “% WR” value ([3]; Tg2576 mice) was 0% and the “% AGS” value ([3]; WT mice) was 0%. The “% Death” value ([3]; WT mice) was 0% and the “% WR” value ([3]; WT mice) was 0%.
